Data as given in publication doi:10.1101/2024.07.10.602890, “H105A peptide eye drops promote photoreceptor survival in murine and human models of retinal degeneration” (bioRxiv, 2024).
Ends that are not written are not given here.

Test: Stability of peptide H105A against temperature (Table S2)
Format: physicochemical
Protocol: Lyophilized peptides were dissolved in sterile HBSS at 1 mg/ml and stored at −20 °C. Before the peptides were used, the peptide solution was brought to room temperature and subjected to centrifugation (Eppendorf, Centrifuge 5430R) at 20,800 g for 10 min at 4°C to clear and separate particulate material. In case a precipitate was found, the pH of the solution was adjusted to neutral pH with either NaOH or HCl and all peptides were soluble. The concentration of peptide solutions was determined using spectrophotometry (NanoDrop, Thermo Fisher Scientific).
Table S2. Stability of 17-mer[H105A] peptide.
Concentration (mg/mL) Store Concentration (mg/mL)
*FT, Freeze and thaw cycles daily

Measured: Concentration Day1

QRTESIIARALYYDLIS [H105A]
1040 µg/mL: sample 1, before storage at RT, peptide solution, spectrophotometry (NanoDrop) | sample 2, before storage at 4°C | sample 3, before storage at -20°C | sample 4, before storage at -20°C [FT]
